The text below walks through data of patent publication US20230042936A1, “PYRIDO[2,3-d]PYRIMIDIN-7(8H)-ONES AS CDK INHIBITORS” (PROSENESTAR LLC, priority 2020, published 2023).

Read-outs that look alike come from different tables or passages of the source.

Targets include CDK5/p35NCK (Homo sapiens, UniProt Q00535); CDK1/CycE1 (Homo sapiens, UniProt P06493); CDK5/p25NCK (Homo sapiens, UniProt Q00535).
Experiment in all cases: Kinase profiling
Type in all cases: biochemical

The next experiment deals with HIPK2 (Homo sapiens, UniProt Q9H2X6). The note with it: 10 semi-logarithmic dilutions from 50 μM, singlicate; read-out: IC50 HIPK2.
Sequence of HIPK2 (Q9H2X6 whole entry): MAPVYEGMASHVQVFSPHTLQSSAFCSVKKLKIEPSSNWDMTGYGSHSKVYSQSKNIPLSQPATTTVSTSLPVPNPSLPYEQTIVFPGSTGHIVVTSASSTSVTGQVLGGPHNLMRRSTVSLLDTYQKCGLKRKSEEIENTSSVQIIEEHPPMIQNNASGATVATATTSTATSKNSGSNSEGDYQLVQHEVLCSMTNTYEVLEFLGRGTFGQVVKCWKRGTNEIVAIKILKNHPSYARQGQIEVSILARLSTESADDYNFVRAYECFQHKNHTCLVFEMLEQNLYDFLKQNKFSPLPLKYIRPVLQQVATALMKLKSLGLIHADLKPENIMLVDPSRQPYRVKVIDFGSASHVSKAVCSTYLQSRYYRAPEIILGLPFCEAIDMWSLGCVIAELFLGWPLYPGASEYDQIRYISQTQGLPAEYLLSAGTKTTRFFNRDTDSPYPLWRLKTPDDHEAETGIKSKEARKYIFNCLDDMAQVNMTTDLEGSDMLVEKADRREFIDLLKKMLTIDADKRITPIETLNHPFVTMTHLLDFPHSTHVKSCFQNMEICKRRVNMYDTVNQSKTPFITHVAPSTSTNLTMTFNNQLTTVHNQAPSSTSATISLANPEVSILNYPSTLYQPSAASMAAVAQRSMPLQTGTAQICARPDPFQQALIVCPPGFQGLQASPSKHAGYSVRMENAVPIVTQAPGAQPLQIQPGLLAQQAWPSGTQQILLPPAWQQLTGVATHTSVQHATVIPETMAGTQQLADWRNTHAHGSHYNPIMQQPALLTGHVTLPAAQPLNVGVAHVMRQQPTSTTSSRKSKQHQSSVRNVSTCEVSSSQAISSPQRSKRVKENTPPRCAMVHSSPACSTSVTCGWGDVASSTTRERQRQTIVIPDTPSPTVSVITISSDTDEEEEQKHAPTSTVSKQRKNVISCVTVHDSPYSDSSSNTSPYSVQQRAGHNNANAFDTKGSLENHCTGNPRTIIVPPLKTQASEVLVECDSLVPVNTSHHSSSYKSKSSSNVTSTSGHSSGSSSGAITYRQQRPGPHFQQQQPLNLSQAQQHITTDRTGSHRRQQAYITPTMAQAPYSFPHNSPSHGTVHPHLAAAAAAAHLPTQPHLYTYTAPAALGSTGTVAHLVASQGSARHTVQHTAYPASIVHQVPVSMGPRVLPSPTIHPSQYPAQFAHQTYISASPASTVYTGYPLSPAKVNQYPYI
The next experiment concerns the target DYRK1A (Homo sapiens, UniProt Q13627). Particulars: 10 semi-logarithmic dilutions from 50 μM, singlicate.
A further experiment deals with PCTAIRE1/CycY (Homo sapiens, UniProt Q00536). The note with it: 10 semi-logarithmic dilutions from 50 μM, singlicate.
A further experiment has as its target T1, DYRK2 (Homo sapiens, UniProt Q92630).
T1 sequence (Q92630 1-601): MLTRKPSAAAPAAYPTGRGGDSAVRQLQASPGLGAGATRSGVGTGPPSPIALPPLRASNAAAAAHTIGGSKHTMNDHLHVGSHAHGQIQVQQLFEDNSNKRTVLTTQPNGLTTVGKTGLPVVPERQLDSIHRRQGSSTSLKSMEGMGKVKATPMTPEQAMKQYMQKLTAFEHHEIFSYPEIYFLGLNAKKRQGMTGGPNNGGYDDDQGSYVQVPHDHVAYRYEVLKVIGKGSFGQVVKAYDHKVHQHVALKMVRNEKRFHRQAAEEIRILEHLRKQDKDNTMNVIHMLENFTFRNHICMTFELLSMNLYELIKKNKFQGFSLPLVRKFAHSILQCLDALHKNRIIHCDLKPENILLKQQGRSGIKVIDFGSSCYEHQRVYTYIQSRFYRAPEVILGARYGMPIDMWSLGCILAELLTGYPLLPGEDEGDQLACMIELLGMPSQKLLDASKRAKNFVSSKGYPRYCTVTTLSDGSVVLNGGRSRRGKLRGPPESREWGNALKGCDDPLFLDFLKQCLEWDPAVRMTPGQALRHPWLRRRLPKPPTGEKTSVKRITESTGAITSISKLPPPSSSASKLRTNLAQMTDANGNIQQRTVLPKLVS
The note with it: 10 semi-logarithmic dilutions from 50 μM, singlicate; read-out: IC50 DYRK2.

Another experiment has as its target CDK12wt/CycK (Homo sapiens, UniProt Q9NYV4). Particulars: 10 semi-logarithmic dilutions from 50 μM, singlicate.
The target in a further experiment is CDK9/CycT1 (Homo sapiens, UniProt P50750). The note with it: 10 semi-logarithmic dilutions from 50 μM, singlicate.
Sequence of CDK9/CycT1 (P50750 whole entry): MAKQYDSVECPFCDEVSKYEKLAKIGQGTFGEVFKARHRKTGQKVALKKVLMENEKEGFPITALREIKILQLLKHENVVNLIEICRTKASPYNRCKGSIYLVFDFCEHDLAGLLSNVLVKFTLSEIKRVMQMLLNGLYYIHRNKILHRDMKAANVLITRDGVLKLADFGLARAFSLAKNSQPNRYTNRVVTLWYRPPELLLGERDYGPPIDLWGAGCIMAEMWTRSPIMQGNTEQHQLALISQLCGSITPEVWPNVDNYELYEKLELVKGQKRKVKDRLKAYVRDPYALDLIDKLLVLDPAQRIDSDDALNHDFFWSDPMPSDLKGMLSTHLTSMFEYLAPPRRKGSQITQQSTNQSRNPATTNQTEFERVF
Sequence of CDK9/CycT1 (O60563 whole entry partner): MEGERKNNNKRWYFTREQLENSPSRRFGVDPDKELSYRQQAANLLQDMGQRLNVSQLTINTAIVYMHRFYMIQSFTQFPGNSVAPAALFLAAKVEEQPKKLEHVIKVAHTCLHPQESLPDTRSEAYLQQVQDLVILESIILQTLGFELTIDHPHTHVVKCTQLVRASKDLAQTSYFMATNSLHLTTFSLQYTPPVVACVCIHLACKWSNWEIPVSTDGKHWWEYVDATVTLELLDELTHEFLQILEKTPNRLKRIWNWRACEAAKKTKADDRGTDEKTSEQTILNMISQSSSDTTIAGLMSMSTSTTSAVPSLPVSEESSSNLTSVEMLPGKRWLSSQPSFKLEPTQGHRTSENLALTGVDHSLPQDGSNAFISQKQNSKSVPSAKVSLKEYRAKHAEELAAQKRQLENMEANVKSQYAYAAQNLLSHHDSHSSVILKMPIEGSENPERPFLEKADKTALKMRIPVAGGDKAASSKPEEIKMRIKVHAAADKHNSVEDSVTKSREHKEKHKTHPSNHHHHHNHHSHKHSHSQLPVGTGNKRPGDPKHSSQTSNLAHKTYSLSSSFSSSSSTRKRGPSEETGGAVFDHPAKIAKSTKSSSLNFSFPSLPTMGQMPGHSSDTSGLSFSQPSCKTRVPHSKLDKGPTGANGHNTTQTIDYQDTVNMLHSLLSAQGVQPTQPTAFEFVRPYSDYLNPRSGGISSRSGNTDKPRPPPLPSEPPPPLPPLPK
[1] abbreviates: 10 semi-logarithmic dilutions from 50 μM, singlicate.

Sequence of CDK1/CycE1 (P06493 whole entry): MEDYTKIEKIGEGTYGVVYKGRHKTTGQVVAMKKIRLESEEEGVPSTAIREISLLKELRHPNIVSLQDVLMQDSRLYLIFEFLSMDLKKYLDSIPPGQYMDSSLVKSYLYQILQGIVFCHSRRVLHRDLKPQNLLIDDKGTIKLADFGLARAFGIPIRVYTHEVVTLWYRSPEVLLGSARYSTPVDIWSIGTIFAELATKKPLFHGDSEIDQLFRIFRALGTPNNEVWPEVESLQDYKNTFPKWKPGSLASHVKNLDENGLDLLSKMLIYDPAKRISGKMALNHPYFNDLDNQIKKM
Sequence of CDK1/CycE1 (P24864 whole entry partner): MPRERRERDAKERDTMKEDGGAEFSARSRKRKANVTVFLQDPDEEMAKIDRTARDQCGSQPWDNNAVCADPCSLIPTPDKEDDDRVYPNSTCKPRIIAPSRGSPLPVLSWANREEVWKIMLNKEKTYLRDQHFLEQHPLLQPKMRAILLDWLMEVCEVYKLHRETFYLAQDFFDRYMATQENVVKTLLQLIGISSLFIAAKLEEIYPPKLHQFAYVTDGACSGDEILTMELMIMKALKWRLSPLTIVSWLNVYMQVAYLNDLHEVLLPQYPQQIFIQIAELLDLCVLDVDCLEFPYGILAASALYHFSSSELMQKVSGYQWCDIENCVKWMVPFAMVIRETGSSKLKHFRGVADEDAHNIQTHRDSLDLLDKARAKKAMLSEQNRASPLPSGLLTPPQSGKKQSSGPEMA
Sequence of CDK12wt/CycK (Q9NYV4 whole entry): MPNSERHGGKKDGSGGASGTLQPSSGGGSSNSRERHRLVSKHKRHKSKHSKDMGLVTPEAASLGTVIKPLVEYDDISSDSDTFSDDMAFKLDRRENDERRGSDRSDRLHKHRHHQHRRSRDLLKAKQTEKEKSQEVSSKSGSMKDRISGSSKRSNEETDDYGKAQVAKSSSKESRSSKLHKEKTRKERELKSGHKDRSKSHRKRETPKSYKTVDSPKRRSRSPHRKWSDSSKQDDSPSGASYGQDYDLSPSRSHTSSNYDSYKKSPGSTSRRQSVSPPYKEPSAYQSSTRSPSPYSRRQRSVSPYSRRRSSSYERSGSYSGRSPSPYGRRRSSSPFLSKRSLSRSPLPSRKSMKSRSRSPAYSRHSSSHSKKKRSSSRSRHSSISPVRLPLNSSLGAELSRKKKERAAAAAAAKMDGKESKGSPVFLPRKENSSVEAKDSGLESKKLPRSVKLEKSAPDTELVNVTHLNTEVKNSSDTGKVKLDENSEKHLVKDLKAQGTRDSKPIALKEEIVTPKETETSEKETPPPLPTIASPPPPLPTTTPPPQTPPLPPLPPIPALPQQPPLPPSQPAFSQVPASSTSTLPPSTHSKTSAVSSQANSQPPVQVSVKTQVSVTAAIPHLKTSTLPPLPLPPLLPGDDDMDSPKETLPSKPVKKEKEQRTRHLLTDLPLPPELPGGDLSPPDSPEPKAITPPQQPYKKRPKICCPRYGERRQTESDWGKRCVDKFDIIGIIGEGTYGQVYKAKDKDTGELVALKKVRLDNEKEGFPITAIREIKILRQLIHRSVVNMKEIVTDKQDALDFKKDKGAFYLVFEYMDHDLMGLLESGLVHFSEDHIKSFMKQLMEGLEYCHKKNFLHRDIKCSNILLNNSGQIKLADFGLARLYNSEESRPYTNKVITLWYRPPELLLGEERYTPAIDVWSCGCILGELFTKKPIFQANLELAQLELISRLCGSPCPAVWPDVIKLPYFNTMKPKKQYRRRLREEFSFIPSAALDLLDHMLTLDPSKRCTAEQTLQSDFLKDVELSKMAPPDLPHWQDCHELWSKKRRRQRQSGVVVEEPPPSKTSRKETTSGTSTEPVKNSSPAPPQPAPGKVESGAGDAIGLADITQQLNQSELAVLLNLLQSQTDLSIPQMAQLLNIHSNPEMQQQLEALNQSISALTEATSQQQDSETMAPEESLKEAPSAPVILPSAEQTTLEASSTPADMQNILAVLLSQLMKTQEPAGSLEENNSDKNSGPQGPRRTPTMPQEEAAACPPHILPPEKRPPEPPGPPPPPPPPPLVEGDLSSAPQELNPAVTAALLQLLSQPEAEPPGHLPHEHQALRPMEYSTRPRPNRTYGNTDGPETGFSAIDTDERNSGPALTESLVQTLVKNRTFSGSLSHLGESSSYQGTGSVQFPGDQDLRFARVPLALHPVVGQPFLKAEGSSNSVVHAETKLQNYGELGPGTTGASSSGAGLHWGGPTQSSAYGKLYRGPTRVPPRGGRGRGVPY
Sequence of CDK12wt/CycK (O75909 whole entry partner): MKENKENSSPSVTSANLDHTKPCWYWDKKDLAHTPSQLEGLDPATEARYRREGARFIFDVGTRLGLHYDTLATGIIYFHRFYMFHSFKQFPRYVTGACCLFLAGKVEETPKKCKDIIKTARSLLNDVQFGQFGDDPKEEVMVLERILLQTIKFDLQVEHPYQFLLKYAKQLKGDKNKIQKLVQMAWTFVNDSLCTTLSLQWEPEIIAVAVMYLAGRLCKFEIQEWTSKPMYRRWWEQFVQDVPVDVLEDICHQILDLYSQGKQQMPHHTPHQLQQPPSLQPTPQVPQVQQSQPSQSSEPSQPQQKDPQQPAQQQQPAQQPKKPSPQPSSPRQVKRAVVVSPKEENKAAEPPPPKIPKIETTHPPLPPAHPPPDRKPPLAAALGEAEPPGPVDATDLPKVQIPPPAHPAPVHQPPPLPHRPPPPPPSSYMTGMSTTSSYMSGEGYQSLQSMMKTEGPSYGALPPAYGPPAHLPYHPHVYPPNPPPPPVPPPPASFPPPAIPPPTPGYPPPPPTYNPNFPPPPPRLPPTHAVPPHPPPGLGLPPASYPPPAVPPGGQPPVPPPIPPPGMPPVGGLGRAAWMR

Consider `CC(=O)c1c(C)c2cnc(Nc3ccc(N4CCC(CCCO)CC4)cc3)nc2n([C@@H]2CC3CCC2C3)c1=O` (stereo partly drawn) [PS008, 6-acetyl-8-((2R)-bicyclo[2.2.1]heptan-2-yl)-2-((4-(4-(3-hydroxypropyl)piperidin-1-yl)phenyl)amino)-5-methylpyrido[2,3-d]pyrimidin-7(8H)-one], for which the IC50 at HIPK2 was found to be 5.58 µM; on DYRK1A it was 11.8 µM; at PCTAIRE1/CycY it was 35.9 µM; on DYRK2, 9.24 µM; against CDK5/p35NCK (setting [1]), 3.68 µM; against CDK12wt/CycK, 28.1 µM. Besides, the values for the IC50 on CDK1/CycE1 (setting [1]), against CDK5/p25NCK (setting [1]) and on CDK9/CycT1 were 3.04 µM, 9.43 µM and 0.175 µM, respectively.
On to `O=c1ccc2cnc(Nc3ccc(N4CCC(OCC5(CO)COC5)CC4)cc3)nc2n1[C@@H]1CC2CCC1C2` (stereo partly drawn) [PS016, 8-((2R)-bicyclo[2.2.1]heptan-2-yl)-2-((4-(4-((3-(hydroxymethyl)oxetan-3-yl)methoxy)piperidin-1-yl)phenyl)amino)pyrido[2,3-d]pyrimidin-7(8H)-one], for which the IC50 at HIPK2 is above 50 µM; at DYRK1A, 28.8 µM; against PCTAIRE1/CycY, 2.02 µM; on DYRK2 it was 19.7 µM; on CDK5/p35NCK (setting [1]) it was 0.255 µM; at CDK12wt/CycK, 0.339 µM. For the same molecule, the results for the IC50 on CDK1/CycE1 (setting [1]), on CDK5/p25NCK (setting [1]) and against CDK9/CycT1 were 0.527 µM, 0.652 µM and 0.0925 µM, respectively.
For the molecule `O=c1ccc2cnc(Nc3ccc(N4CCC(CCCO)CC4)cc3F)nc2n1[C@@H]1CC2CCC1C2` (stereo partly drawn) [PS002, 8-((2R)-bicyclo[2.2.1]heptan-2-yl)-2-((2-fluoro-4-(4-(3-hydroxypropyl)piperidin-1-yl)phenyl)amino)pyrido[2,3-d]pyrimidin-7(8H)-one], the IC50 at HIPK2 was above 50 µM; against DYRK1A, above 50 µM; against PCTAIRE1/CycY it was above 50 µM; on DYRK2, above 50 µM; on CDK5/p35NCK (setting [1]), 38.6 µM; against CDK12wt/CycK it was 28.4 µM. In addition, the figures for the IC50 on CDK1/CycE1 (setting [1]), on CDK5/p25NCK (setting [1]) and against CDK9/CycT1 were 14.6 µM, above 50 µM and 8.07 µM, respectively.
As to `O=c1ccc2cnc(Nc3ccc(N4CCC(CCCO)CC4)cc3)nc2n1C1CC2CCC1C2` (stereo not drawn) [PD-0183812, reference compound], the IC50 was above 50 µM at HIPK2; 31.9 µM against DYRK1A; 43.5 µM at PCTAIRE1/CycY; above 50 µM on DYRK2; 1.84 µM on CDK5/p35NCK; 3.16 µM against CDK12wt/CycK. Moreover, the IC50 came out at 8.09 µM against CDK1/CycE1, 30.1 µM against CDK5/p25NCK and 0.484 µM on CDK9/CycT1.
In the case of `CC(=O)c1c(C)c2cnc(Nc3ccc(N4CCNCC4)cc3)nc2n([C@@H]2CC3CCC2C3)c1=O` (stereo partly drawn) [PS010, 6-acetyl-8-((2R)-bicyclo[2.2.1]heptan-2-yl)-5-methyl-2-((4-(piperazin-1-yl)phenyl)amino)pyrido[2,3-d]pyrimidin-7(8H)-one], the IC50 at HIPK2 stood at 0.187 µM; against DYRK1A it was 3.65 µM; against PCTAIRE1/CycY, 4.31 µM; on DYRK2, 1.26 µM; against CDK5/p35NCK (setting [1]), 0.113 µM; against CDK12wt/CycK it was 0.799 µM. Also, the IC50 was determined as 1.44 µM against CDK1/CycE1 (setting [1]), 0.395 µM at CDK5/p25NCK (setting [1]) and 0.0366 µM on CDK9/CycT1.
Take `O=c1ccc2cnc(Nc3ccc(N4CCNCC4)cc3)nc2n1[C@@H]1CC2CCC1C2` (stereo partly drawn) [PS007, 8-((2R)-bicyclo[2.2.1]heptan-2-yl)-2-((4-(piperazin-1-yl)phenyl)amino)pyrido[2,3-d]pyrimidin-7(8H)-one]: the IC50 at HIPK2 was 5.56 µM; on DYRK1A, 1.18 µM; against PCTAIRE1/CycY it was 0.00404 µM; on DYRK2, 2.31 µM; against CDK5/p35NCK (setting [1]), 0.0159 µM; at CDK12wt/CycK, 0.0258 µM. Besides, the IC50 worked out at 0.0408 µM at CDK1/CycE1 (setting [1]), 0.0523 µM against CDK5/p25NCK (setting [1]) and 0.0136 µM on CDK9/CycT1.
For the molecule `O=c1ccc2cnc(Nc3ccc(N4CCC(CCCO)CC4)c(F)c3)nc2n1[C@@H]1CC2CCC1C2` (stereo partly drawn) [PS003, 8-((2R)-bicyclo[2.2.1]heptan-2-yl)-2-((3-fluoro-4-(4-(3-hydroxypropyl)piperidin-1-yl)phenyl)amino)pyrido[2,3-d]pyrimidin-7(8H)-one], the IC50 is above 50 µM at HIPK2; above 50 µM against DYRK1A; 43.8 µM against PCTAIRE1/CycY; above 50 µM at DYRK2; 1.92 µM against CDK5/p35NCK (setting [1]); 3.18 µM against CDK12wt/CycK. For the same molecule, the figures for the IC50 against CDK1/CycE1 (setting [1]), at CDK5/p25NCK (setting [1]) and against CDK9/CycT1 were 2.97 µM, 4.66 µM and 0.918 µM, respectively.
Take `CC(O)CCN1CCN(c2ccc(Nc3ncc4ccc(=O)n([C@@H]5CC6CCC5C6)c4n3)cc2)CC1` (stereo partly drawn) [PS005, 8-((2R)-bicyclo[2.2.1]heptan-2-yl)-2-((4-(4-(3-hydroxybutyl)piperazin-1-yl)phenyl)amino)pyrido[2,3-d]pyrimidin-7(8H)-one]: the IC50 is 6.06 µM at HIPK2; 1.38 µM at DYRK1A; 0.00769 µM on PCTAIRE1/CycY; 4.72 µM at DYRK2; 0.0347 µM at CDK5/p35NCK (setting [1]); 0.0308 µM against CDK12wt/CycK. The results for the half-maximal inhibitory concentration (IC50) at CDK1/CycE1 (setting [1]), against CDK5/p25NCK (setting [1]) and on CDK9/CycT1 were 0.173 µM, 0.0725 µM and 0.0214 µM, respectively.
